# System: volunteers with CUD
# Experiment: Phase 2a study, subjective effects of smoked cannabis (VAS, CRF)
# Assay type: in vivo, human
# Conditions: for reduction of cannabis' positive subjective effects compared to placebo: Phase 2a
# Protocol: Participants, in groups of 3−4, completed two 5-d inpatient periods (first period ‘A’ and second period ‘B’) separated by a ≥ 14-d outpatient washout. During the two testing periods, participants received AEF0117 or matching placebo in counterbalanced order (two dosing sequences: AEF0117 first or placebo first). Participants took capsules at 9:00 each day and then smoked a controlled amount of cannabis (approximately 67 mg of THC smoked over 6 min) 3.5 h later (12:30). Ratings of the subjective effects of cannabis were done five times after cannabis administration (20 min, 40 min, 60 min, 90 min and 120 min after cannabis) using a VAS (0–100 mm). […] Participants were told that the cannabis strength could vary from day to day and between participants but that the cannabis they each received at 12:30 that day was the strength available for self-administration that day.
# The primary endpoint measuring the good subjective effect of cannabis related to addiction was an ‘Intoxication’ subscale based on a cluster analysis of the 44-item VAS[22], comprising the arithmetic mean of two items: ‘I feel a Good Effect’ and ‘I feel High’[22]. The positive subjective effects of cannabis were further assessed by individual items on the Cannabis Rating Form (CRF)[23], where participants rated the cannabis that they had most recently smoked in terms of ‘Cannabis Cigarette Liking’ and ‘Felt Good Cannabis Effect’ (key secondary endpoints) using a VAS. Cannabis self-administration was evaluated by measuring the number of puffs purchased at each timepoint (key secondary endpoint).
# Data from the first dose level were reviewed by the Data Safety Monitoring Board before ascending to the next dose level.
# Ratings of subjective effects of cannabis were performed using multiple items from two different instruments: (1) the 44-item VAS[22] and (2) the CRF[23]. Both instruments used visual analog scales (from 0 mm to 100 mm) to measure subjective effects. […] The subscale of the 44-item VAS was initially named the ‘Good Cannabis Effect’ subscale. Before starting the statistical analysis, this subscale was renamed ‘Intoxication’ subscale to avoid confusion with a key secondary endpoint on the CRF labeled ‘Felt Good Cannabis Effect’.
# On each study day (days 1–5), at approximately 12:30, participants received an experimenter-administered ‘sample’ of cannabis (two cannabis cigarettes of approximately 800 mg, 7% THC, provided by NIDA). They were guided by an investigator through smoking a total of six 5-s inhalations using a paced-puff smoking procedure, where inhalation duration, time spent holding smoke in the lungs and inter-puff interval were timed. […] To capture a full timecourse of cannabis effects, participants completed the 44-item VAS and a CRF at 12:50, 13:10, 13:30, 14:[…].
# As specified in the SAP, the statistical analyses employed an MMRM analysis using the REML as estimation method and structured covariance matrix with compound symmetry; the model included as factors and covariates: sequence, dose, treatment, time and days as fixed effects and subject within sequence as random effect.
# Based on the SAP, the following analytical steps depending on results of the various analyses were undertaken. The primary and key secondary endpoints were first analyzed with a global crossover MMRM analysis (using combined cohorts: 0.06 mg + 1 mg).
# [1] = global crossover, 0.06 mg, 20 min after THC
# [2] = global crossover, 0.06 mg, 40 min after THC
# [3] = global crossover, 0.06 mg, 60 min after THC
# [4] = global crossover, 0.06 mg, 90 min after THC
# [5] = global crossover, 0.06 mg, 105 min after THC
# [6] = global crossover, 1 mg, 20 min after THC
# [7] = global crossover, 1 mg, 40 min after THC
# [8] = global crossover, 1 mg, 60 min after THC
# [9] = global crossover, 1 mg, 90 min after THC
# [10] = global crossover, 1 mg, 105 min after THC
# [11] = parallel group (period A), 0.06 mg, 20 min after THC
# [12] = parallel group (period A), 0.06 mg, 40 min after THC
# [13] = parallel group (period A), 0.06 mg, 60 min after THC
# [14] = parallel group (period A), 0.06 mg, 90 min after THC
# [15] = parallel group (period A), 0.06 mg, 105 min after THC
# [16] = parallel group (period A), 1 mg, 20 min after THC
# [17] = parallel group (period A), 1 mg, 40 min after THC
# [18] = parallel group (period A), 1 mg, 60 min after THC
# [19] = parallel group (period A), 1 mg, 90 min after THC
# [20] = parallel group (period A), 1 mg, 105 min after THC
smiles,measurement,setting,value
"COc1ccc(CO[C@H]2CC[C@@]3(C)C(=CC[C@H]4[C@@H]5CC[C@H](C(C)=O)[C@@]5(C)CC[C@@H]43)C2)cc1 [AEF0117, 3β-(4-methoxybenzyloxy)pregn-5-en-20-one]",cannabis ratings,"0.06 mg, parallel group analysis, period A",significant reduction
same,'Felt Good Cannabis Effect' item on the CRF,"1 mg, global crossover MMRM",significantly reduced
same,ratings on the 'Intoxication' subscale of the 44-item VAS,"1 mg, global crossover MMRM",significantly reduced
same,reduction of cannabis' positive subjective effects compared to placebo,0.06 mg,19%
same,reduction of cannabis' positive subjective effects compared to placebo,1 mg,38%
same,"Cannabis cigarette liking item, mean",[1],76.2 mm
same,"Felt good cannabis effect item, mean",[1],77.9 mm
same,"Intoxication subscale, mean",[1],63.7 mm
same,"Cannabis cigarette liking item, mean",[2],74.9 mm
same,"Felt good cannabis effect item, mean",[2],76.1 mm
same,"Intoxication subscale, mean",[2],58.8 mm
same,"Cannabis cigarette liking item, mean",[3],72.6 mm
same,"Felt good cannabis effect item, mean",[3],72.7 mm
same,"Intoxication subscale, mean",[3],53.9 mm
same,"Cannabis cigarette liking item, mean",[4],73.5 mm
same,"Felt good cannabis effect item, mean",[4],75.8 mm
same,"Intoxication subscale, mean",[4],47.1 mm
same,"Cannabis cigarette liking item, mean",[5],73.2 mm
same,"Felt good cannabis effect item, mean",[5],75.0 mm
same,"Intoxication subscale, mean",[5],44.4 mm
same,"Cannabis cigarette liking item, mean",[6],61.7 mm
same,"Felt good cannabis effect item, mean",[6],66.8 mm
same,"Intoxication subscale, mean",[6],66.8 mm
same,"Cannabis cigarette liking item, mean",[7],57.8 mm
same,"Felt good cannabis effect item, mean",[7],62.4 mm
same,"Intoxication subscale, mean",[7],61.5 mm
same,"Cannabis cigarette liking item, mean",[8],54.8 mm
same,"Felt good cannabis effect item, mean",[8],58.0 mm
same,"Intoxication subscale, mean",[8],57.2 mm
same,"Cannabis cigarette liking item, mean",[9],54.0 mm
same,"Felt good cannabis effect item, mean",[9],56.1 mm
same,"Intoxication subscale, mean",[9],48.2 mm
same,"Cannabis cigarette liking item, mean",[10],54.4 mm
same,"Felt good cannabis effect item, mean",[10],54.7 mm
same,"Intoxication subscale, mean",[10],43.7 mm
same,"Cannabis cigarette liking item, mean",[11],68.3 mm
same,"Felt good cannabis effect item, mean",[11],73.0 mm
same,"Intoxication subscale, mean",[11],57.1 mm
same,"Cannabis cigarette liking item, mean",[12],65.5 mm
same,"Felt good cannabis effect item, mean",[12],70.2 mm
same,"Intoxication subscale, mean",[12],50.9 mm
same,"Cannabis cigarette liking item, mean",[13],62.3 mm
same,"Felt good cannabis effect item, mean",[13],65.7 mm
same,"Intoxication subscale, mean",[13],44.4 mm
same,"Cannabis cigarette liking item, mean",[14],61.8 mm
same,"Felt good cannabis effect item, mean",[14],67.4 mm
same,"Intoxication subscale, mean",[14],38.0 mm
same,"Cannabis cigarette liking item, mean",[15],63.1 mm
same,"Felt good cannabis effect item, mean",[15],68.2 mm
same,"Intoxication subscale, mean",[15],37.8 mm
same,"Cannabis cigarette liking item, mean",[16],63.9 mm
same,"Felt good cannabis effect item, mean",[16],67.9 mm
same,"Intoxication subscale, mean",[16],67.0 mm
same,"Cannabis cigarette liking item, mean",[17],59.3 mm
same,"Felt good cannabis effect item, mean",[17],60.6 mm
same,"Intoxication subscale, mean",[17],58.9 mm
same,"Cannabis cigarette liking item, mean",[18],54.5 mm
same,"Felt good cannabis effect item, mean",[18],53.3 mm
same,"Intoxication subscale, mean",[18],54.5 mm
same,"Cannabis cigarette liking item, mean",[19],55.7 mm
same,"Felt good cannabis effect item, mean",[19],50.7 mm
same,"Intoxication subscale, mean",[19],45.5 mm
same,"Cannabis cigarette liking item, mean",[20],55.9 mm
same,"Felt good cannabis effect item, mean",[20],52.3 mm
same,"Intoxication subscale, mean",[20],40.8 mm
